According to ChEMBL document CHEMBL1201862, “PubChem BioAssay data set” (2004):
The source made the active and inactive calls.

Legend:
Steroidogenic factor 1 = Steroidogenic factor 1 (Homo sapiens, UniProt Q13285); experiment: Counterscreen for inverse agonists of the liver receptor homolog-1 (LRH-1; NR5A2): Luminescence-based cell-based high throughput dose response assay to identify inverse agonists of the Steroidogenic Factor 1 Nuclear Receptor (SF1; NR5A1).; assay type: functional
[1] = StAR promoter reporter inhibition counter-screen, dose response, counter-screen for LRH-1 inverse agonist project, cell-based, luminescence, luciferase reporter (AID 651969); assay type: functional
[2] = molecular target: Nuclear receptor subfamily 5 group A member 2 (Homo sapiens, UniProt O00482); assay type: functional, cell-based;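 note: HEK293T cells transfected with LRH-1 and a StAR promoter luciferase reporter; potency for inhibitors that lower LRH-1 driven reporter light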
[3] = ARNT/TACC3 interaction disruptors, potency, confirmation, biochemical, AlphaScreen, cherry-picked samples (AID 651703); assay type: functional, Homo sapiens;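 note: His-tagged ARNT PAS-B domain paired with GST-TACC3 E629A dimer coactivator fragment; potency of inhibitors that break up the complex and lower AlphaScreen signal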
Escherichia coli = experiment: microbe, parasite or virus in culture
[4] = AlphaScreen signal interference compounds, dose response, artefact control for ARNT-TACC3 interaction inhibitor project, biochemical, luminescence, cherry-pick (AID 651705); assay type: functional;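 note: AlphaScreen bead proximity signal that flags compounds interfering with the detection technology; potency reflects signal decrease which marks the compound as an assay artifact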
Cytochrome P450 3A4 = Cytochrome P450 3A4 (Homo sapiens, UniProt P08684);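 note: CYP3A4 tested as one member of a cytochrome P450 panel screen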
[5] = molecular target: T1, Aryl hydrocarbon receptor (Homo sapiens, UniProt P35869); settings: Potency;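 note: confirmatory quantitative high-throughput screen measuring activation of the AhR signaling pathway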
T1 sequence (P35869 whole entry): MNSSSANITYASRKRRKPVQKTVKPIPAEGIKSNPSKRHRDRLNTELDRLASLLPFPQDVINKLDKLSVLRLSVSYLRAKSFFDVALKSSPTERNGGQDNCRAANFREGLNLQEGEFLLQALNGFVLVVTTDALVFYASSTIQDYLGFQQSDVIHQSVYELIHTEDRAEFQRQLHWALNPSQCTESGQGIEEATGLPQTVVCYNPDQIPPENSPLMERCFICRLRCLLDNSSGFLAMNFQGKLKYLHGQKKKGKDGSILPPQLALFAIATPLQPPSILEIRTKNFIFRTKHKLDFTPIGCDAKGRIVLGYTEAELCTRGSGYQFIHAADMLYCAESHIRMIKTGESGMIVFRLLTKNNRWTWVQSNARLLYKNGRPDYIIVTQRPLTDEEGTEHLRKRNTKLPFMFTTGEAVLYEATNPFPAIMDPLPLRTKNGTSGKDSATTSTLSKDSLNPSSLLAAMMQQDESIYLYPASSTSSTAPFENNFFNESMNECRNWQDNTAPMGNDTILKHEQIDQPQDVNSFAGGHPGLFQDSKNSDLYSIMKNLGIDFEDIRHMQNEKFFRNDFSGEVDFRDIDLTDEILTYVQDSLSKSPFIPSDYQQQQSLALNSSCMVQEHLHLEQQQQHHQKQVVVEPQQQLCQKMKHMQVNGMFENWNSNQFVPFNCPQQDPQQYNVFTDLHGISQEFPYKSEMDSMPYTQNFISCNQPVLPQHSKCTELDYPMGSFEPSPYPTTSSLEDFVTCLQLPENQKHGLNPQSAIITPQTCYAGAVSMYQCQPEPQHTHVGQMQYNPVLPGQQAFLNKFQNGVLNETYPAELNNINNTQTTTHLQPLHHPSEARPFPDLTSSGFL

[6] = molecular target: T2, Polyadenylate-binding protein 1 (Homo sapiens, UniProt P11940); experiment: PABP1 MLLE–PAM2 interaction inhibitors, dose response, miRNA deadenylation inhibitor project, biochemical, fluorescence polarization, Cy5-PAM2 peptide, secondary (AID 602260); assay type: functional; settings: read-out: IC50_Mean
T2 sequence (P11940 whole entry): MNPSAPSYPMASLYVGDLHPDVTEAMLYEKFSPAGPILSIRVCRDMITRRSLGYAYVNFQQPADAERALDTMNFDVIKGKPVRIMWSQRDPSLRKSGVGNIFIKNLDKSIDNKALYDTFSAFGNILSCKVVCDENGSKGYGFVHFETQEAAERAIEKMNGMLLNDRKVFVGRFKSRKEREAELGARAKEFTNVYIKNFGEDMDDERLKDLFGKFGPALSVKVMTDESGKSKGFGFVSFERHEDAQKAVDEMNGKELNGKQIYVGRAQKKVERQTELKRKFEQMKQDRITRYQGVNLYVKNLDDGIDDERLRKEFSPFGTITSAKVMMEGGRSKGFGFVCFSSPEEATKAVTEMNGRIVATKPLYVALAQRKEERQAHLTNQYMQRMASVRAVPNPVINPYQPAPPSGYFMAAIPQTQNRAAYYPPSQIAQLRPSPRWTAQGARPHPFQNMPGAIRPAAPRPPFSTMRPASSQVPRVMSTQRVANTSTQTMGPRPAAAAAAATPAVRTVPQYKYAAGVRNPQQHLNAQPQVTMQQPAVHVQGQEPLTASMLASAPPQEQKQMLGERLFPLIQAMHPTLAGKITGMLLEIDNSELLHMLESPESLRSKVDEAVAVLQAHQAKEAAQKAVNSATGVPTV

Genome polyprotein = Genome polyprotein (dengue virus type 2, UniProt P29990); experiment: Dengue-2 NS5 methyltransferase inhibitors, primary screen, biochemical, confirmation dose response (AID 588689); assay type: functional
Sequence of Genome polyprotein (P29990 2492-3391 limits assumed): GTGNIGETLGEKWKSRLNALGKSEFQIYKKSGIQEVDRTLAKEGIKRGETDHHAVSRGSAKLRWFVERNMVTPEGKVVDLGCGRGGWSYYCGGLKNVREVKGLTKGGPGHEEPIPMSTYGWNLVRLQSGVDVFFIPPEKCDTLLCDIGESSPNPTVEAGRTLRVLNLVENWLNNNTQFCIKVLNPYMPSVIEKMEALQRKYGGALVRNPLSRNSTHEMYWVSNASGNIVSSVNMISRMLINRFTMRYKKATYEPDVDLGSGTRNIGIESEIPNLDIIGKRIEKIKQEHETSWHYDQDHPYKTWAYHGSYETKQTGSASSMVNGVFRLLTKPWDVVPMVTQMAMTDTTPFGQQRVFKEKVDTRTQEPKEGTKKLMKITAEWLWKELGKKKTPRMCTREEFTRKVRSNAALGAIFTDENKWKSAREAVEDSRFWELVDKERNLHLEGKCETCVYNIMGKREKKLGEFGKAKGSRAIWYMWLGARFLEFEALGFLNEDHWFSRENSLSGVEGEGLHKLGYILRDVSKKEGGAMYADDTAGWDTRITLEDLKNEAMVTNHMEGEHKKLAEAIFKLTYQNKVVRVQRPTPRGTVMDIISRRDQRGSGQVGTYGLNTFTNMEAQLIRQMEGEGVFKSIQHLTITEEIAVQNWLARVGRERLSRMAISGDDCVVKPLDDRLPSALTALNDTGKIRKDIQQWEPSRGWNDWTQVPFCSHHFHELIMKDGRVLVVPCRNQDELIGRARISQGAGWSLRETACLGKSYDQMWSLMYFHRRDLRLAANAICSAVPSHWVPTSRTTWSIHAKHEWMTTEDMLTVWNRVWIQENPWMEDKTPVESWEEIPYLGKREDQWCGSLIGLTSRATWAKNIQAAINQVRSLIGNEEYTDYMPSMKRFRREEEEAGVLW

[7] = molecular target: T2, Polyadenylate-binding protein 1; experiment: PABP1 MLLE–PAM2 binding inhibitor potency, dose response, biochemical, fluorescence polarization, FITC-PAM2 peptide (AID 602259); assay type: functional; settings: read-out: IC50_Mean
[8] = molecular target: T3, Sentrin-specific protease 1 (Homo sapiens, UniProt Q9P0U3); experiment: potency of human SENP1 inhibitors, dose response, biochemical, kinetic FRET (AID 651697); assay type: functional; settings: read-out: IC50_Mean
T3 sequence (Q9P0U3 whole entry, the tested form may be a part): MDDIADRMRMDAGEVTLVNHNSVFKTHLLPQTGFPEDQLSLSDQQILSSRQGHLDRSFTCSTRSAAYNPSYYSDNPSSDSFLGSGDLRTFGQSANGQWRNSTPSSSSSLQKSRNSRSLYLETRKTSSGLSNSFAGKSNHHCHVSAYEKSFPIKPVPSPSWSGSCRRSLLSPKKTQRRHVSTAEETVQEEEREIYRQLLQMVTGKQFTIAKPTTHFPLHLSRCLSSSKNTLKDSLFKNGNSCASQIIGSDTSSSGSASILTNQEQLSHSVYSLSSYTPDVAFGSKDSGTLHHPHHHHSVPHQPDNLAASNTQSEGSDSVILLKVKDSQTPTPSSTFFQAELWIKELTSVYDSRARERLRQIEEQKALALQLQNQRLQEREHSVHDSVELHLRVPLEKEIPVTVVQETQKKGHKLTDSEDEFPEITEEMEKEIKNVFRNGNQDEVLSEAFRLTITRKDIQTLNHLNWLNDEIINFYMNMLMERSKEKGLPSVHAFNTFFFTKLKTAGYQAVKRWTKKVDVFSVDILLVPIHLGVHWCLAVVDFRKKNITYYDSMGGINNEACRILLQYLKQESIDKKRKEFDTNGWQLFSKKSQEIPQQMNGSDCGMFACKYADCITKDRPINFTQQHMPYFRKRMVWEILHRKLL

[9] = molecular target: T3, Sentrin-specific protease 1; experiment: Dose response confirmation of small molecule inhibitors of the catalytic domain of the SUMO protease, SENP1 in a FRET assay.; assay type: functional; settings: read-out: IC50_Mean
[10] = molecular target: Adenosylmethionine-8-amino-7-oxononanoate aminotransferase (Mycobacterium tuberculosis, UniProt P9WQ81); experiment: Mycobacterium tuberculosis BioA enzyme inhibitor Measured in Biochemical System Using Plate Reader - 2163-02_Inhibitor_Dose_CherryPick_Activity.; assay type: functional, Mycobacterium tuberculosis UT205
Sequence of Adenosylmethionine-8-amino-7-oxononanoate aminotransferase (P9WQ81 whole entry): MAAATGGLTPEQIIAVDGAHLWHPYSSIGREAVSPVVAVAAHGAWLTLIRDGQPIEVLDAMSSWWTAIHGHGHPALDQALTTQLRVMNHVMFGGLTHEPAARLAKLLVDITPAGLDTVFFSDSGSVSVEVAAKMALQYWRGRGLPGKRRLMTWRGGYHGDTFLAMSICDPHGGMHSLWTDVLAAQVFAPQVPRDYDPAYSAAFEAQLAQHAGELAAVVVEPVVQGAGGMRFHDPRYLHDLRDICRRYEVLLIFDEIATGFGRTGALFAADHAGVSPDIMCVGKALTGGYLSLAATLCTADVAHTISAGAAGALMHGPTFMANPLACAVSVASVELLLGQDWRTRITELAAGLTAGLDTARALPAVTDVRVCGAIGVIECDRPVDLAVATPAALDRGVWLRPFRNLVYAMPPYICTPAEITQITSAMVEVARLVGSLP

[11] = molecular target: T4, Replicative DNA helicase DnaB (Mycobacterium tuberculosis, UniProt P9WMR3); experiment: DnaB intein splicing inhibitors, dose response, biochemical, cell-free fluorescence (AID 449749); assay type: functional
T4 sequence (P9WMR3 whole entry): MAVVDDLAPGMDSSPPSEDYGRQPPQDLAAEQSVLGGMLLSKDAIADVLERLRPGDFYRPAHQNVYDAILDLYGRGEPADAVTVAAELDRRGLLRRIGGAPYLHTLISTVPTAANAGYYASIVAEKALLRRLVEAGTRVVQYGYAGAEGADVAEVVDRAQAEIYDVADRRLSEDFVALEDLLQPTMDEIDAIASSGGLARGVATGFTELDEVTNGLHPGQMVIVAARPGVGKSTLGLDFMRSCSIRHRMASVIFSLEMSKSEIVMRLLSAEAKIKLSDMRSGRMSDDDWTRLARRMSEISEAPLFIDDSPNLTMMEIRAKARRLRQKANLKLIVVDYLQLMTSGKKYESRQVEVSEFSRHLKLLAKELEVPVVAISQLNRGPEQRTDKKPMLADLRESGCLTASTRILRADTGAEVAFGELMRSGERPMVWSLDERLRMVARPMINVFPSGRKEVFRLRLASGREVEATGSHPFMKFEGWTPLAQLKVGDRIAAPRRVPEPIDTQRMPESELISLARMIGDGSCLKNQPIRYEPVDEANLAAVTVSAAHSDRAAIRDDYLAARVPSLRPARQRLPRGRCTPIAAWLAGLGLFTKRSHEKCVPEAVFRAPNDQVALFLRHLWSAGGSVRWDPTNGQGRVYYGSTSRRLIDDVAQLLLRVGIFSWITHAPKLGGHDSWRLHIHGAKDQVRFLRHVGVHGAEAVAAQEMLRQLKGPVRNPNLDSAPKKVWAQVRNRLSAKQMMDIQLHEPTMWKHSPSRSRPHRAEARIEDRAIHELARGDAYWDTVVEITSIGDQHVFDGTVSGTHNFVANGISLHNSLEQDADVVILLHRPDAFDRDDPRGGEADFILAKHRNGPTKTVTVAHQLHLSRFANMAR

[12] = molecular target: Hepatocyte nuclear factor 4-alpha (Homo sapiens, UniProt P41235); assay type: functional, cell-based;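 note: biochemical luminescence-based dose-response counterscreen measuring inhibition of HNF4 dimerization, run alongside a screen for blockers of ABHD5–perilipin-5 interaction; split luciferase complementation of HNF4 fusion proteins in cell lysate measuring dimerization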
Sequence of Hepatocyte nuclear factor 4-alpha (P41235 whole entry, the tested form may be a part): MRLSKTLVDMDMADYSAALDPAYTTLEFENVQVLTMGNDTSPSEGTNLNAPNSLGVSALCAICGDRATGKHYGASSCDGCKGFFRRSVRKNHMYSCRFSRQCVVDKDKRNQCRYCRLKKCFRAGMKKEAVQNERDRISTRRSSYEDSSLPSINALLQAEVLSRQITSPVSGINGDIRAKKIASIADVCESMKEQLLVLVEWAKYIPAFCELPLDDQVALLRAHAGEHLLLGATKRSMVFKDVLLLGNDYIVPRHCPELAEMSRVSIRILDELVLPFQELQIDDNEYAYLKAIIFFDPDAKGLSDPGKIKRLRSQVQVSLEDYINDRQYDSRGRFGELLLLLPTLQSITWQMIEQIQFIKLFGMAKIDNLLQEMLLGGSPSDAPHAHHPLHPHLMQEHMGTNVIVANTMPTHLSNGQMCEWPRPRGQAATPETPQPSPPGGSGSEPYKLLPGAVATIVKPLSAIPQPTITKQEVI

[13] = HepG2 cell cytotoxicity, dose response, cytotoxicity control for Shn3 inhibitor project, CellTiter-Glo, cherry-picked (AID 624134); assay type: functional, cell-based
[14] = Shn3 3'UTR reporter inhibitors, dose response, cell-based, Clone20 osteoblasts, firefly luciferase, cherry-picked (AID 624132); assay type: functional;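 note: firefly luciferase luminescence from reporter carrying the Shn3 3'UTR in osteoblasts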
[15] = control 3'UTR Renilla luciferase suppression, dose response, counter-screen for Shn3 inhibitor project, cell-based, Clone20-Shn3RL, cherry-picked (AID 624133); assay type: functional
Vero = Vero cell cytotoxicity, cytotoxicity control for flavivirus capping enzyme inhibitors (AID 588742); assay type: functional; settings: Chlorocebus sabaeus
Protein RecA = molecular target: T5, Protein RecA (Mycobacterium tuberculosis, UniProt P9WHJ3); experiment: Fluorescence Cell-Free Homogeneous Dose Retest to Identify Inhibitors of RecA-Intein Splicing Activity. [Related pubchem assays (depositor defined):AID2097, AID2223, AID489010, AID492950]; assay type: functional
T5 sequence (P9WHJ3 whole entry): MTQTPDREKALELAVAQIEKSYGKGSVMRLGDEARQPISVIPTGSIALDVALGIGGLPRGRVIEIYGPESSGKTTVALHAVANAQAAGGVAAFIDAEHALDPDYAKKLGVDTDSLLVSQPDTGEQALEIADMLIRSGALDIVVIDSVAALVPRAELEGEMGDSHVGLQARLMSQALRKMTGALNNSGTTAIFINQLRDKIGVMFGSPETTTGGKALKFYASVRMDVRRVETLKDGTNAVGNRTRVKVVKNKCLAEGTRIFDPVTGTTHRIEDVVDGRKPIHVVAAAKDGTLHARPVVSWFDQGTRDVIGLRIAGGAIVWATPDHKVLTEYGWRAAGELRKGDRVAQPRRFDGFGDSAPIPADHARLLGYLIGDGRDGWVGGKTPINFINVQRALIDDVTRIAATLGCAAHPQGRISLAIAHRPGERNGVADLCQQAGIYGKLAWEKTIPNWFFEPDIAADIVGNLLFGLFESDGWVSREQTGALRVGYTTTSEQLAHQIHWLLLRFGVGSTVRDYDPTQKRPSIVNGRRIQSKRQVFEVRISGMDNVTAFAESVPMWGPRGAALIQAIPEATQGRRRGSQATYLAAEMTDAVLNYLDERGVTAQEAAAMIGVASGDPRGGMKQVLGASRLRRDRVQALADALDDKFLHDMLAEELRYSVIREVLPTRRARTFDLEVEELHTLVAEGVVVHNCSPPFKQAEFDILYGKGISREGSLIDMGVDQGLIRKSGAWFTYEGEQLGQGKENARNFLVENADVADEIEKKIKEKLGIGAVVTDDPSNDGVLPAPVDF

[16] = molecular target: Tyrosine-protein phosphatase non-receptor type 5 (Homo sapiens, UniProt P54829); experiment: STEP phosphatase inhibitors, confirmation, biochemical, fluorescence intensity, uHTS hits (AID 602372); assay type: functional; settings: read-out: IC50_Mean
[17] = molecular target: Tyrosine-protein phosphatase non-receptor type 11 (Homo sapiens, UniProt Q06124); experiment: SHP2 phosphatase inhibition, dose response, selectivity assay for STEP inhibitor project, biochemical (AID 602367); assay type: functional; settings: read-out: IC50_Mean
Sequence of Tyrosine-protein phosphatase non-receptor type 11 (Q06124 whole entry): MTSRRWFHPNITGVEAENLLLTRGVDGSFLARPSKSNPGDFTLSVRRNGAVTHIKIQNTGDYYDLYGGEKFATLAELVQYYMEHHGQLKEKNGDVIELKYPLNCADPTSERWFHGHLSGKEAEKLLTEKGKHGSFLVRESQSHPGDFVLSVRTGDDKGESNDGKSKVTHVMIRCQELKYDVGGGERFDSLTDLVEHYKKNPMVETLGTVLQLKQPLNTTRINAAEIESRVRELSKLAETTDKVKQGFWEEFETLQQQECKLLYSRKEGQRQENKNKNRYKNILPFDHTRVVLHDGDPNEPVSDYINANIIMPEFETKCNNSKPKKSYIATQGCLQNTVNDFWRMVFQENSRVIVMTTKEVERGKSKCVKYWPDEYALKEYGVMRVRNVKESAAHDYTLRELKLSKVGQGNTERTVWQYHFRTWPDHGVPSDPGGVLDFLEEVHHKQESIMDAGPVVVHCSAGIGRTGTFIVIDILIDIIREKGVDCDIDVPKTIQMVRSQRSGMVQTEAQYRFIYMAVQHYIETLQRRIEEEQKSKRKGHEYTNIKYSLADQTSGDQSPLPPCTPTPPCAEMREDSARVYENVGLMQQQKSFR

[18] = molecular target: Dual specificity protein phosphatase 3 (Homo sapiens, UniProt P51452); experiment: VHR phosphatase inhibition, dose response, selectivity assay for STEP inhibitor project, biochemical (AID 602374); assay type: functional; settings: read-out: IC50_Mean
Sequence of Dual specificity protein phosphatase 3 (P51452 whole entry): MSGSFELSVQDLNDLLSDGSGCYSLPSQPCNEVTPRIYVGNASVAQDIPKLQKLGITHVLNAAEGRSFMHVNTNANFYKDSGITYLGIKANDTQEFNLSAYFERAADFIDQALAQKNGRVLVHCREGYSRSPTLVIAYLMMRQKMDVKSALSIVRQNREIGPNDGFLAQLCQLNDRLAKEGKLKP

[19] = molecular target: Induced myeloid leukemia cell differentiation protein Mcl-1 (Homo sapiens, UniProt Q07820); assay type: functional
Sequence of Induced myeloid leukemia cell differentiation protein Mcl-1 (Q07820 whole entry): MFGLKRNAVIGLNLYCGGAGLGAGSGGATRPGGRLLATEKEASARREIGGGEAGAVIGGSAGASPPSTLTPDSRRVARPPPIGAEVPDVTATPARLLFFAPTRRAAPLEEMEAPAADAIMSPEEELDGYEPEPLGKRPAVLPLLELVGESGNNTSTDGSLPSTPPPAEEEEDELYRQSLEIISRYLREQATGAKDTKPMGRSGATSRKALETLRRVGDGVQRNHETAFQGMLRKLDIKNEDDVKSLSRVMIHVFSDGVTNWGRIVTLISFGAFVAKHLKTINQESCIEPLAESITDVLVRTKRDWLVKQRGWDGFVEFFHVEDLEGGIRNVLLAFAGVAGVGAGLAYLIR

[20] = molecular target: T6, Probable nicotinate-nucleotide adenylyltransferase (Staphylococcus aureus (strain N315), UniProt P65502); assay type: functional, Staphylococcus aureus subsp. aureus N315; settings: read-out: IC50_Mean;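 for IC50 Mean: confirmatory dose-response retesting of NadD inhibitor hits first found in an ultra-high-throughput screen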
T6 sequence (P65502 whole entry): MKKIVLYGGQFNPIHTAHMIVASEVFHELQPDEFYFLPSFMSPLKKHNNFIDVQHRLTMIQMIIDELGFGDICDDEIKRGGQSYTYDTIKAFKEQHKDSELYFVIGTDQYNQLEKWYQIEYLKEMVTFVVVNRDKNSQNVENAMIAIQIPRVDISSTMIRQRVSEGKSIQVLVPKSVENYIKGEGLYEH

[21] = molecular target: T6, Probable nicotinate-nucleotide adenylyltransferase; assay type: functional, Staphylococcus aureus subsp. aureus N315
[22] = molecular target: T7, Low molecular weight phosphotyrosine protein phosphatase (Homo sapiens, UniProt P24666); assay type: functional; settings: read-out: IC50_Mean
T7 sequence (P24666 whole entry): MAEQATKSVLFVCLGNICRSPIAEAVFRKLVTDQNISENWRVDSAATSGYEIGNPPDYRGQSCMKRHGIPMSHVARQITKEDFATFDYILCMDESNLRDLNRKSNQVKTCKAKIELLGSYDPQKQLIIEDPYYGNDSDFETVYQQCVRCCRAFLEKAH

[23] = molecular target: T7, Low molecular weight phosphotyrosine protein phosphatase; assay type: functional; settings: read-out: IC50_Mean; remark: listed apart in the source

Sequence of Steroidogenic factor 1 (Q13285 whole entry): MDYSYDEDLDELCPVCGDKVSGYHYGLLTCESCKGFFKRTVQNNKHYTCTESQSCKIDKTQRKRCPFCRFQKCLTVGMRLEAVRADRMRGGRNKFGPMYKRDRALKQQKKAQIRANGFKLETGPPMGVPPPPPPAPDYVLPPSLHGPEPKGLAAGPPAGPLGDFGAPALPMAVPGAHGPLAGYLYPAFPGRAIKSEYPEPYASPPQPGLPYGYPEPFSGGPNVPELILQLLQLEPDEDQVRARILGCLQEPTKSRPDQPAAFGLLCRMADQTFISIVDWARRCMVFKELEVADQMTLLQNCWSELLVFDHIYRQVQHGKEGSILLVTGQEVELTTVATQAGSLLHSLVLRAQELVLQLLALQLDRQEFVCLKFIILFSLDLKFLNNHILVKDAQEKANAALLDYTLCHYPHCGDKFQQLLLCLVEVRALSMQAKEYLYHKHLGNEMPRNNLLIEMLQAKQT

## NC(=O)C1CCN(C(=O)COc2ccc3c4c(c(=O)oc3c2)CCC4)CC1
Steroidogenic factor 1
  IC50: 35.9 µM (inactive)
[1]
  IC50: 35.9 µM (inactive)
[2]
  IC50: 35.9 µM (inactive)

## C/C(CC(=O)NCc1ccccc1Cl)=N/NC(=O)c1ccccn1
[3]
  AC50: 77.8 µM (active)

## Cn1c(-c2ccccc2)cnc1N
Escherichia coli
  AC50: 22.7 µM (active)
[4]
  AC50: 102 µM (active)
Cytochrome P450 3A4
  AC50: 28.2 µM (inconclusive)

## CCOP(=S)(OCC)Oc1ncn(-c2ccccc2)n1 [TRIAZOPHOS]
[5]
  AC50: 11.2 µM (inconclusive)

## Nc1nc(O)cc(N=Nc2ccc(O)cc2)n1
[6]
  IC50: > 66 µM (inactive)
Genome polyprotein
  IC50: 26.7 µM (active)
[7]
  IC50: 43.8 µM (inactive)
[8]
  IC50: 11.6 µM (active)
[9]
  IC50: 15.4 µM (active)

## CC(=O)c1ccc(N2CCN(C(=O)Cc3ccccc3)CC2)c(F)c1
[10]
  AC50: 4.97 µM (active)

## CSc1nnc(NC(=O)c2nc(S(=O)(=O)Cc3ccccc3)ncc2Cl)s1
[11]
  AC50: 5.23 µM (active)
[12]
  IC50: 5.52 µM (active)
Genome polyprotein
  IC50: 50.6 µM (active)
[13]
  AC50: 67.4 µM (active)
[14]
  AC50: 1.35 µM (active)
[15]
  AC50: 14.5 µM (active)
Vero
  CC50: 31.1 µM (active)
Protein RecA
  EC50: 4.73 µM (active)

## CCOc1ccc(CCNC(=O)CS(=O)(=O)Cc2nc(-c3ccc(OC)cc3)oc2C)cc1
[16]
  IC50: > 80 µM (inactive)
[17]
  IC50: 9.1 µM (active)
[18]
  IC50: 26.8 µM (inactive)

## O=C(Nc1ccc(S(=O)(=O)Nc2nccs2)cc1)/C(=C/c1ccccc1Cl)NC(=O)c1ccccc1
[19]
  IC50: 2.73 µM (active)
[20]
  IC50: 22.8 µM (active)
[21]
  IC50: 6.5 µM (active)

## Nc1ncc2c(n1)CC(c1ccco1)CC2=O (stereo not given)
[22]
  IC50: 56.8 µM (inactive)
[23]
  IC50: 40.5 µM (inactive)
